# Test results reported in patent US20020051978A1, “Methods and compositions for the identification, assessment, prevention and therapy of human cancers” (priority 2000, published 2002).
# “And” between values parts separate entries of the source, which are not always exact repeats. Equal values may be shown once. Where a name gives a salt, the structure may show the parent alone. Read-outs that look alike come from different tables or passages of the source.
# System: 60 cancer cell lines (NCI 60 cancer cell line series)
# Test: NCI-DTP in vitro cancer screen, sulforhodamine B (SRB) growth inhibition, 48 hour exposure
# Format: cell-based, human
# Set-up: key to sensitivity class Ovarian OVCAR-8 CL6005 / sensitivity class Ovarian SK-OV-3 CL6011 / sensitivity class Prostate DU-145 CL11003 / sensitivity class NSCLC NCI-H522 CL1003 / sensitivity class Ovarian IGROV1 CL6010 / sensitivity class Ovarian OVCAR-4 CL6002 / sensitivity class Prostate PC-3(I) CL11001 / sensitivity class Renal A498 CL9013 / sensitivity class Renal SN12C CL9008: sensitivity class: 1 = Low, 2 = Medium, 3 = High
# Method: Cancer Cell Line Preparation. Sixty cancer cell lines were obtained from the National Cancer Institute Developmental Therapeutics Program (NCI-DTP). Procedures for growing cells and testing compounds have been described previously (Scudiero et al., Cancer Res. 1988, 48:4827-4833; Stinson et al., Anticancer Res.; Myers et al., Electrophoresis 1997, 18:647-653). Cells are plated on day 0 at a density individualized for each cell line so that they will generally be sub-confluent at the end of the assay period. On day 1, a compound is added in the format for a duplicate-well, 5-dose, ten-fold interval dose response study.
# No-drug, no-cell and no-growth controls are included. On day 3 the cells are processed for staining with sulforhodamine B (SRB), which reflects the amount of cell mass present at the end of a 48 hour exposure to the test agent. From dose response curves based on the SRB data, various parameters can be determined. The one used in the present study is the G15o, defined as the concentration of compound required to inhibit growth of the cell line by 50%. More precisely, the quantity used in the calculation to be described is the potency measure -log{GI50}.
# Activity database (A). Table IA, consisting of the growth inhibition (GI5o) values for the 60 cell lines and 24 compounds, was created from the NCI-DTP in vitro cancer screen database. This subset of compounds was selected from the larger 23,000 compound database available from the DTP. The compounds were selected on the basis of their known mechanism of action and chemical structure. The average potency—log{GI50} was extracted from the comma-delimited text files available through the Web at http://www.nci.nih.gov/intra/lmp/jnwbio.htmrl. Subsequently, these log{GI5o} values were inspected manually and classified as indicating either Low, Medium or High sensitivity to each compound.
structure (smiles),measurement,setting,value
CC[C@]1(O)C[C@@H]2CN(CCc3c([nH]c4ccccc34)[C@@](C(=O)OC)(c3cc4c(cc3OC)N(C)[C@H]3[C@@](O)(C(=O)OC)[C@H](OC(C)=O)[C@]5(CC)C=CCN6CC[C@]43[C@@H]65)C2)C1.O=S(=O)(O)O [Vinbiastine sulfate],"classification of cell line as Low(1), Medium(2) or High(3) sensitivity to compound",,2 and 3 and 1
CC[C@]1(O)C[C@@H]2CN(CCc3c([nH]c4ccccc34)[C@@](C(=O)OC)(c3cc4c(cc3OC)N(C)[C@H]3[C@@](O)(C(=O)OC)[C@H](OC(C)=O)[C@]5(CC)C=CCN6CC[C@]43[C@@H]65)C2)C1 [Vinblastine sulfate],"classification of cell line as Low(1), Medium(2) or High(3) sensitivity to compound",CNS SF-539 CL12016,2
same,"classification of cell line as Low(1), Medium(2) or High(3) sensitivity to compound",CNS SNB-19 (CL12002),2
same,"classification of cell line as Low(1), Medium(2) or High(3) sensitivity to compound",CNS U251(I) CL12009,2
same,"classification of cell line as Low(1), Medium(2) or High(3) sensitivity to compound",Colon HCC-2998 (CL4002),2
same,"classification of cell line as Low(1), Medium(2) or High(3) sensitivity to compound",Colon HCT-15 CL4015,1
same,"classification of cell line as Low(1), Medium(2) or High(3) sensitivity to compound",Colon KM12 (CL4017),2
same,"classification of cell line as Low(1), Medium(2) or High(3) sensitivity to compound",Colon SW-620 (CL4009),2
same,"classification of cell line as Low(1), Medium(2) or High(3) sensitivity to compound",Leukemia CCRF-CEM(I) (CL7003),2
same,"classification of cell line as Low(1), Medium(2) or High(3) sensitivity to compound",Leukemia HL-60(I) (CL7008),3
same,"classification of cell line as Low(1), Medium(2) or High(3) sensitivity to compound",Leukemia MOLT-4 (CL7006),2
same,"classification of cell line as Low(1), Medium(2) or High(3) sensitivity to compound",Leukemia SR CL7019,3
same,"classification of cell line as Low(1), Medium(2) or High(3) sensitivity to compound",Melanoma M14 (CL10014),2
same,"classification of cell line as Low(1), Medium(2) or High(3) sensitivity to compound",Melanoma MALME-3M CL10002,2
same,"classification of cell line as Low(1), Medium(2) or High(3) sensitivity to compound",Melanoma SK-MEL-2 (CL10005),2
same,"classification of cell line as Low(1), Medium(2) or High(3) sensitivity to compound",Melanoma SK-MEL-5 (CL10007),3
same,"classification of cell line as Low(1), Medium(2) or High(3) sensitivity to compound",Melanoma SK-MEL-28 (CL10008),2
same,"classification of cell line as Low(1), Medium(2) or High(3) sensitivity to compound",Melanoma UACC-62 (CL10020),3
same,"classification of cell line as Low(1), Medium(2) or High(3) sensitivity to compound",NSCLC A549/ATCC (CL1004),2
same,"classification of cell line as Low(1), Medium(2) or High(3) sensitivity to compound",NSCLC EKVX (CL1008),1
same,"classification of cell line as Low(1), Medium(2) or High(3) sensitivity to compound",NSCLC HOP-62 (CL1026),2
same,"classification of cell line as Low(1), Medium(2) or High(3) sensitivity to compound",NSCLC HOP-92 (CL1029),2
same,"classification of cell line as Low(1), Medium(2) or High(3) sensitivity to compound",NSCLC NCI-H226 CL1013,2
same,sensitivity class NSCLC NCI-H23(I) CL1001,"cell line NSCLC NCI-H23(I), CL1001",2
same,sensitivity class NSCLC NCI-H332M CL1017,"cell line NSCLC NCI-H332M, CL1017",2
same,sensitivity class NSCLC NCI-H460 CL1021,"cell line NSCLC NCI-H460, CL1021",2
same,sensitivity class NSCLC NCI-H522 CL1003,"cell line NSCLC NCI-H522, CL1003",3
same,sensitivity class Ovarian IGROV1 CL6010,"cell line Ovarian IGROV1, CL6010",2
same,sensitivity class Ovarian OVCAR-3 CL6001,"cell line Ovarian OVCAR-3, CL6001",3
same,sensitivity class Ovarian OVCAR-8 CL6005,"cell line Ovarian OVCAR-8, CL6005",2
same,sensitivity class Ovarian SK-OV-3 CL6011,"cell line Ovarian SK-OV-3, CL6011",2
same,sensitivity class Renal 786-O CL9018,"cell line Renal 786-O, CL9018",2
same,sensitivity class Renal CAKI-1 CL9015,"cell line Renal CAKI-1, CL9015",2
same,sensitivity class Renal RXF-393 CL9016,"cell line Renal RXF-393, CL9016",2
same,sensitivity class Renal SN12C CL9008,"cell line Renal SN12C, CL9008",2
same,sensitivity class Renal TK10 CL9024,"cell line Renal TK10, CL9024",1
same,sensitivity class Renal UO-31 CL9004,"cell line Renal UO-31, CL9004",1
CC[C@]1(O)C[C@@H]2CN(CCc3c([nH]c4ccccc34)[C@@](C(=O)OC)(c3cc4c(cc3OC)N(C)[C@H]3[C@@](O)(C(=O)OC)[C@H](OC(C)=O)[C@]5(CC)C=CCN6CC[C@]43[C@@H]65)C2)C1 [Vinblastinesulfate],"classification of cell line as Low(1), Medium(2) or High(3) sensitivity to compound",Breast BT-549 (CL5013),3
same,"classification of cell line as Low(1), Medium(2) or High(3) sensitivity to compound",Breast HS-578T CL5006,3
same,"classification of cell line as Low(1), Medium(2) or High(3) sensitivity to compound",Breast MCF7(I) (CL5001),3
same,"classification of cell line as Low(1), Medium(2) or High(3) sensitivity to compound",Breast MCF7/ADRr (CL5002),1
same,"classification of cell line as Low(1), Medium(2) or High(3) sensitivity to compound",Breast MDA-MB-231 CL5005,2
same,"classification of cell line as Low(1), Medium(2) or High(3) sensitivity to compound",Breast MDA-MB-435 (CL5011),3
same,"classification of cell line as Low(1), Medium(2) or High(3) sensitivity to compound",Breast MDA-N CL5012,3
same,"classification of cell line as Low(1), Medium(2) or High(3) sensitivity to compound",Breast T-47D (CL5014),3
same,"classification of cell line as Low(1), Medium(2) or High(3) sensitivity to compound",CNS SF-268 CL12014,2
same,"classification of cell line as Low(1), Medium(2) or High(3) sensitivity to compound",CNS SF-295 CL12015,2
